# Entries after “also recorded” stand apart in the source; their conditions may differ. Structures can show the parent of a compound that is named as a salt.
# What was measured:
# [1] = test system: HK100 cells; experiment: Incorporation of other analogues and precursors into FAS-TE L2222TAG (Ni-NTA, SDS-PAGE, Bradford); assay type: cell-based, Escherichia coli; details: for full-length protein production / PCL biosynthesis from precursor: Escherichia coli cells with pylB/pylC/pylD/pylS/pylT; for Bradford: 25 ml culture
# [2] = pH 5
# [3] = biological target: T1, pylS tRNA synthetase (Methanosarcina mazei, UniProt Q8PWY1); experiment: Incorporation test with synthetic pyrrolysine analogues (full-length hRBP4 mutant #6); assay type: cell-based; details: 2 or 5 mM analogue, HEK293F cells with pylT/pylS only, Western blot and SDS-PAGE
# T1 construct: expressed in transfected cells; host or cells: HEK293F
# T1 sequence (Q8PWY1 whole entry): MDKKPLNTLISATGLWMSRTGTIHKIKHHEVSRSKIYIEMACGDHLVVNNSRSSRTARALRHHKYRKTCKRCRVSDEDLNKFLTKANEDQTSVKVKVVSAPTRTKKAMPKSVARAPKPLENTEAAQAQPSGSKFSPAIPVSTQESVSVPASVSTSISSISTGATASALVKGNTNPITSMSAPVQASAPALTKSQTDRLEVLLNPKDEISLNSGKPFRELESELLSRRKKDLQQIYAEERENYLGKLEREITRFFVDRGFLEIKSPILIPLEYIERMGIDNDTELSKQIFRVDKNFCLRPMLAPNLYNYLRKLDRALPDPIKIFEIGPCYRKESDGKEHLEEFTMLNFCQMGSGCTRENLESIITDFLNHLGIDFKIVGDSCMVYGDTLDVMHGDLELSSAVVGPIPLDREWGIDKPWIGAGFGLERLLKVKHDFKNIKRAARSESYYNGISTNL
# Experimental: In parallel to the above experiment, the production of full-length hRBP4 Phe122PCL protein (mutant #6) was also measured in the presence of a series of synthetic pyrrolysine analogues designed with an acetyl moiety for chemical derivatization after protein incorporation (FIG. 14B). The synthetic analogues were prepared as described in Example 19. pRSRBP was co-transfected into HEK293F cells with pCMVpyS which supplies one gene copy of pylT tRNA and of pylS tRNA synthetase. Depending on solubility, the synthetic analogues were added to the media either at 2 or 5 mM final concentration.
# [4] = test system: HEK293F cells; experiment: Incorporation test with putative PCL and pyrrolysine precursors (full-length hRBP4 Phe122PCL); assay type: cell-based, human; details: 5 mM precursor; HEK293F cells with pylT, pylS, pylB, pylC, pylD; Western blot and SDS-PAGE of Ni-NTA purified samples
# Experimental: The production of full-length hRBP4 Phe122PCL protein (mutant #6) was measured in the presence of the putative PCL precursor D-ornithine, D-proline, D-arginine, D-glutamic acid, 4-hydroxyl-D-proline and 2-pyrrolidone-5-carboxylic acid (FIGS. 13A and B, FIG. 14A). pRSRBP was co-transfected into HEK293F cells with pCMVpyS, pCMVpyB, pCMVpyC and pCMVpyD and cells were grown in the presence of 5 mM of the putative precursor (FIG. 14A) as described in Example 2.
# [5] = test system: PylD; experiment: NMR evaluation of Lys-Nε-D-Orn as substrate for PylD; assay type: biochemical, Methanosarcina mazei
# [6] = Compound stability (degradation measured by nuclear magnetic resonance spectroscopy); assay type: physicochemical
# [7] = purified FAS-TE from HK100 cells with pylB/pylC/pylD/pylS/pylT (lanes 5-11)
structure (smiles),measurement,setting,value
"O=C(O)C1CCC=N1 (racemic) [P5C, Ammonium DL-1-pyrroline-5-carboxylate]",full-length protein production / PCL biosynthesis from precursor,[1],failed to produce full-length protein; also recorded: not sufficient to support PCL biosynthesis
same,Bradford,[1]; [7],0.075 mg/25 ml
"N[C@@H](CCCCNC(=O)C1CCC=N1)C(=O)O (mixture of isomers) [PCL-A, (S)-2-amino-6-(3,4-dihydro-2H-pyrrole-2-carboxamido) hexanoic acid]",incorporation into protein (full-length FAS-TE),[1]; Escherichia coli cells with only pylS and pylT genes,incorporated with high efficiency; also recorded: incorporated into proteins
same,Bradford,[1]; purified FAS-TE from HK100 cells with pylS/pylT genes only (lanes 1-4),0.539 mg/25 ml
"Nc1ccc([N+](=O)[O-])cc1C(=O)c1ccccc1 [2-ANBP, 2-amino-5-nitro-benzophenone]",solubility,[2],low solubility
"N[C@@H](CCCCNC(=O)OC1CCCC1)C(=O)O [CYC, N-ε-cyclopentyloxycarbonyl-L-lysine, reference compound]",production of full-length hRBP4 (mutant #6) in the presence of synthetic pyrrolysine analogue,[3],protein production to a level similar to D-ornithine; also recorded: measurable protein band
N=C(N)NCCC[C@@H](N)C(=O)O [D-arginine],production of full-length hRBP4 Phe122PCL protein in the presence of putative precursor,[4],above background protein production
N[C@H](CCC(=O)O)C(=O)O [D-glutamic acid],production of full-length hRBP4 Phe122PCL protein in the presence of putative precursor,[4],did not result in full-length protein production above background
NCCC[C@@H](N)C(=O)O [D-ornithine],production of full-length hRBP4 Phe122PCL protein in the presence of putative precursor,[4],measurable protein band
O=C(O)[C@H]1CCCN1 [D-proline],production of full-length hRBP4 Phe122PCL protein in the presence of putative precursor,[4],did not result in full-length protein production above background
"NCCC[C@@H](N)C(=O)NCCCC[C@H](N)C(=O)O [Lys-Nε-D-ornithine, (2S)-2-amino-6-((R)-2,5-diaminopentanamido)hexanoic acid]",substrate for PylD,[5],substrate for PylD
same,full-length protein production / PCL biosynthesis from precursor,[1]; listed as Lys-Nε-D-Orn,resulted in protein expression with PCL incorporated at the amber codon
same,full-length protein production / PCL biosynthesis from precursor,[1]; listed as Lys-Nε-D-orn,substantial amounts of full-length protein
same,Bradford,[1]; [7],1.66 mg/25 ml
"O=C(O)C1=NCCC1 [P2C, 3,4-dihydro-2H-pyrrole-5-carboxylate]",full-length protein production / PCL biosynthesis from precursor,[1],failed to produce full-length protein; also recorded: not sufficient to support PCL biosynthesis
same,Bradford,[1]; [7],0.103 mg/25 ml
"CC(=O)CC(=O)NCCCC[C@H](N)C(=O)O [TU3000-016, (S)-2-amino-6-(3-oxobutanamido)hexanoic acid hydrochloride]",compound stability,[6],not stable
same,production of full-length hRBP4 (mutant #6) in the presence of synthetic pyrrolysine analogue,[3]; hydrochloride,measurable but much lower incorporation; also recorded: viable substrate for the pylS tRNA synthetase

# Reference: US9624520B2, “Biosynthetically generated pyrroline-carboxy-lysine and site specific protein modifications via chemical derivatization of pyrroline-carboxy-lysine and pyrrolysine residues” (Novartis AG, priority 2008, dated 2017)
